In patent publication US20250136655A1, “INJECTION PEN FOR SUBCUTANEOUS ADMINISTRATION OF A PEPTIDE” (Zealand Pharma A/S, priority 2017, published 2025):
Values joined by “and” are separate entries in the source; they are usually repeats but may differ in a detail not shown here. Equal values may be shown once. Read-outs that look alike come from different tables or passages of the source. Ends that are not written are not given here.

Columns and labels:
[1] = cited from earlier work
[2] = Phase 2 clinical trial PK profile of ZP1848 and metabolites in SBS patients; assay type: in vivo; conditions: human, plasma
Procedure: The study was designed as a randomized, cross-over and double-blinded with three different doses of ZP1848 (10 mg, 1 mg, 0.1 mg) in 16 SBS patients.
The 18 SBS patients (16 patients completed the study) were randomized evenly and in a double-blinded fashion to each of the six cross-over dose level combinations: 10 mg/1 mg, 10 mg/0.1 mg, 1 mg/10 mg, 1 mg/0.1 mg, 0.1 mg/10 mg, 0.1 mg/1 mg of ZP1848. The patients were injected once daily (QD) subcutaneously with the above doses of ZP1848.
Blood samples for PK analysis were collected on several study visits throughout the study period: the study comprised a 1st baseline balance study (4 days), a 1st treatment period (21 days) including a 1st treatment balance study (last 4 days of 1st treatment period), followed by a wash-out period (at least 4 weeks); and a 2nd baseline balance study (4 days), a 2nd treatment period (21 days) including a 2nd treatment balance study (last 4 days of 2nd treatment period) and a follow-up period (at least 4 weeks).
PK sampling was performed at visit 11 (1st treatment, balance study) and visit 17 (second day of 2nd baseline study-after a wash out period), and again at visit 25 (2nd treatment balance study) and at visit 29 (last day of follow-up period).
At day visit 11 and visit 25 a full PK profile in steady state was investigated. PK samples were taken prior to injection of ZP1848, and at the following time points (+/−10 minutes) after trial product administration: 1 h, 2 h, 4 h, 6 h, 8 h, 10 h, 12 h and 24 h. Each PK sample contained 2 mL of blood, resulting in a total of […] blood drawn for PK purposes. The plasma sample was immediately stored at −80° C. after sampling.
Plasma samples were analyzed after immunoaffinity extraction followed by liquid chromatography mass spectrometry (LC-MS/MS). […] Plasma terminal elimination half-life (T½) was determined as In (2)/ke where ke is the magnitude of the slope of the log linear regression of the log concentration versus time profile during the terminal phase.

[3] = Phase 1 PK trial of glepaglutide in healthy subjects, half-life of metabolite ZP2469; assay type: in vivo, human; conditions: per subject; for half-life: human, plasma
Source text: A Phase 1, Open-Label, Partially Randomized, 3-Part, Parallel Group Trial to Evaluate the Pharmacokinetic Profile of glepaglutide (ZP1848) After a Single Intravenous Injection and After Multiple Subcutaneous Injections in Healthy Human Subjects A Phase 1 clinical trial to characterize the pharmacokinetic (PK) profiles of glepaglutide (ZP1848) and its primary active metabolites following once-weekly and once daily subcutaneous (SC) injections and after a single intravenous (IV) infusion in healthy subjects was conducted. This included evaluating the pharmacodynamic effects on plasma citrulline levels following SC dosing in healthy subjects. The trial confirmed the feasibility of dosage regimes in which GLP-2 analogues are administered to patients in weekly dosage regimes and compare weekly dosage regimes with daily dosing.
The trial design was a single-center, open-label, partially randomized, 3-part, parallel group trial to characterize the PK profile of glepaglutide administered by SC injection once daily for 7 days (Part 1), SC injection once weekly for 6 weeks (Part 2), and as a single IV infusion (Part 3) in healthy subjects.
Group A: 1 mg glepaglutide once daily, given as single SC injections on Days 1 to 7.
Group B: 5 mg glepaglutide once daily, given as single SC injections on Days 1 to 7.
Group C: 5 mg glepaglutide once weekly, given as single SC injections on Days 1, 8, 15, 22, 29, and 36.
Group D: 10 mg glepaglutide once weekly, given as single SC injections on Days 1, 8, 15, 22, 29, and 36.
Blood samples were collected for the analysis of plasma concentrations of glepaglutide and its primary active metabolites, ZP2469 (ZP18481-34) and ZP2711 (ZP18481-35); samples were assayed using validated analytical methods. The following PK parameter estimates were calculated using standard non-compartmental methods: terminal elimination half-life (t1/2), total body clearance of drug after IV administration (CL; IV dose, parent drug only), apparent total clearance (CL/F; SC doses, parent drug only), volume of distribution at steady state (Vss; IV dose, parent drug only), apparent volume of distribution at steady state (Vss/F; SC doses, parent drug only), volume of distribution (Vz; IV dose, parent drug only), apparent volume of distribution (Vz/F; SC doses, parent drug only), maximum observed plasma concentration (Cmax), area under the plasma concentration-time curve (AUC) over a dosing interval (AUCT), AUC from time zero to infinity (AUCinf), AUC from time zero to the time of the last measurable concentration (AUClast), and time of the maximum observed plasma concentration (tmax). Metabolite exposure (based on Cmax, AUCT, and AUCinf) were determined for each group as a ratio of the 2 primary active metabolites, ZP2469 (ZP18481-34) and ZP2711 (ZP18481-35), relative to the glepaglutide parent drug.
The PK parameters estimates for glepaglutide, ZP2469 (ZP18481-34), and ZP2711 (ZP 18481-35) were listed and summarized using standard descriptive statistics. The primary PK parameters are t1/2 for glepaglutide, ZP2469 (ZP18481-34), and ZP2711 (ZP18481-35); and CL (IV dose), CL/F (SC doses), Vss(IV dose), Vss/F (SC dose), Vz(IV dose), and Vz/F (SC doses) for glepaglutide. The half-life is calculated as LN(2)/ke where ÷ke is estimate from the slope of the terminal part of the LN(concentration) versus time curve, with repeats regressions of LN(concentration) values using the last three points with non-zero concentrations, then the last four points, last five points, etc. Points with a concentration value of zero are not included. Points prior to Cmax are not used. […] 2) ke must be calculated from at least three data points. 3) The estimated slope must be negative, so that its negative ke is positive. The results of the calculations carried out with preliminary data are shown in Table 4, while the results of the calculations with the complete final data set are shown in Table 5. […]

[4] = test system: Wistar rats; experiment: Intestinotrophic effects following 26-week chronic exposure in rats; assay type: in vivo; conditions: in words
Procedure: Wistar rats were dosed subcutaneously (SC) with vehicle, 1, 3 and 10 mg/kg ZP1848 on a daily basis for 26 weeks. Further sub-groups of control and high-dose animals were allowed a 6-week recovery period following completion of the dosing period. […] The length and the weight of the small and large intestines were measured at necropsy as indicators of intestinotrophic effects and the intestinal tract was evaluated histologically.

[5] = previous experiments; cited from earlier work
[6] = molecular target: T1, human GLP-2 receptor (human, UniProt O95838 1-553); experiment: cell-based or functional assay
T1 sequence (looked up): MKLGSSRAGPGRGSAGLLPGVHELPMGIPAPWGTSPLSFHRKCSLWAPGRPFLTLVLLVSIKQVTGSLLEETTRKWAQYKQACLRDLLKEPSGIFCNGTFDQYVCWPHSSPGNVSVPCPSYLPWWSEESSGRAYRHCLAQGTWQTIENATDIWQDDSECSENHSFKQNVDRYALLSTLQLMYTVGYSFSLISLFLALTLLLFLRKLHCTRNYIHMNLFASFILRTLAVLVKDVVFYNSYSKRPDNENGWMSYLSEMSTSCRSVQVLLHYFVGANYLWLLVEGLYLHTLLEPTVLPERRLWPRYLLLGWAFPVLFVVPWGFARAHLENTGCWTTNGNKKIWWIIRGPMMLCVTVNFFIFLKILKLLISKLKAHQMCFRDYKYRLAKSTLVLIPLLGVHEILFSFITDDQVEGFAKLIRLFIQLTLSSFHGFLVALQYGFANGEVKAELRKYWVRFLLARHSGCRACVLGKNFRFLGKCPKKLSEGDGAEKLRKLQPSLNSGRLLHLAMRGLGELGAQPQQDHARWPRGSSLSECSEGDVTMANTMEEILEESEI

[7] = subcutaneous, Phase 2 study, SBS patients, read-out: terminal plasma half-life

CC[C@H](C)[C@H](NC(=O)[C@H](Cc1ccccc1)NC(=O)[C@H](CC(=O)O)NC(=O)[C@H](CCCNC(=N)N)NC(=O)[C@H](C)NC(=O)[C@H](C)NC(=O)[C@H](CC(C)C)NC(=O)[C@H](CC(N)=O)NC(=O)[C@H](CC(=O)O)NC(=O)[C@H](CC(C)C)NC(=O)[C@@H](NC(=O)[C@@H](NC(=O)[C@H](CC(N)=O)NC(=O)[C@H](CCSC)NC(=O)[C@H](CCC(=O)O)NC(=O)[C@H](CC(=O)O)NC(=O)[C@H](CO)NC(=O)[C@H](Cc1ccccc1)NC(=O)[C@H](CO)NC(=O)CNC(=O)[C@H](CC(=O)O)NC(=O)CNC(=O)[C@@H](N)Cc1c[nH]cn1)[C@@H](C)O)[C@@H](C)CC)C(=O)N[C@@H](CC(N)=O)C(=O)N[C@@H](Cc1c[nH]c2ccccc12)C(=O)N[C@@H](CC(C)C)C(=O)N[C@H](C(=O)N[C@@H](CCC(N)=O)C(=O)N[C@H](C(=O)N[C@@H](CCCCN)C(=O)N[C@H](C(=O)N[C@H](C(=O)N[C@@H](CC(=O)O)C(=O)O)[C@@H](C)O)[C@@H](C)CC)[C@@H](C)O)[C@@H](C)CC [Teduglutide]
half-life ([1]; in vivo): about two

GLP-2 [3-33]: truncated GLP-2 [3-33] (DGSFSDEMNTILDNLAARDFINWLIQTKITD; Glucagon-like peptide 2; UniProt P01275 148-178, looked up, fragment)
half-life ([1]; in humans): ~0.45 h

H-HGEGTFSSELATILDALAARDFIAWLIATKITDK-OH [ZP2469]
half-life [2, 7]: 120 to 408 h | Half-life of ZP2469 in the interval from 72 to 168 hours post dose ([3]; final results, Group A, 1 mg once daily, after 7 doses): 75 h | Half-life of ZP2469 in the interval from 72 to 168 hours post dose ([3]; final results, Group C, 5 mg once weekly, after 1 dose): 59 h and 75 h | Half-life of ZP2469 in the interval from 72 to 168 hours post dose ([3]; final results, Group C, 5 mg once weekly, after 6 doses): 57 h | Half-life of ZP2469 in the interval from 72 to 168 hours post dose ([3]; final results, Group D, 10 mg once weekly, after 1 dose): 54 h and 46 h and 35 h and 60 h and 26 h and 53 h and 43 h and 33 h and 45 h and 38 h | Half-life of ZP2469 in the interval from 72 to 168 hours post dose ([3]; final results, Group D, 10 mg once weekly, after 6 doses): 59 h and 53 h and 42 h and 48 h | half-life ([3]; sc, 10 mg, preliminary results, Group D, 10 mg glepaglutide SC once weekly, after 1 dose, read-out: Half-life ZP2469 (converted)): 56 h | half-life ([3]; subcutaneous, 1 mg, final results, Group A, 1 mg once daily, after 7 doses, read-out: Half-life of ZP2469 in the interval from 72 to 168 hours post dose (converted)): 94 h | Half-life ZP2469 ([3]; preliminary results, Group A, 1 mg glepaglutide SC once daily, after 7 doses): 20 h | Half-life ZP2469 ([3]; preliminary results, Group C, 5 mg glepaglutide SC once weekly, after 1 dose): 17 h | Half-life ZP2469 ([3]; preliminary results, Group D, 10 mg glepaglutide SC once weekly, after 1 dose): 38 h and 34 h

H-HGEGTFSSELATILDALAARDFIAWLIATKITDKK-OH [ZP2711]
half-life ([2]; sc, plasma terminal elimination half-life, per subject, after SC once-daily ZP1848, read-out: Half-life (converted)): 336 h

H-HGEGTFSSELATILDALAARDFIAWLIATKITDKKKKKK-NH2 [ZP1848] [listing 1 of 2 here]
mucosal hyperplasia of the duodenum, jejunum and ileum ([4]; 1, 3 and 10 mg/kg SC daily for 26 weeks): dose-related increase | length and weight of the large intestine ([4]; SC daily for 26 weeks): slightly increased

H-HGEGTFSSELATILDALAARDFIAWLIATKITDKKKKKK-NH2 [ZP1848] [listing 2 of 2 here]
half-life [2, 7]: 120 to 408 h | half-life [5]: about 17 hours

Hy-His-Ala-Asp-Gly-Ser-Phe-Ser-Asp-Glu-Met-Asn-Thr-Ile-Leu-Asp-Asn-Leu-Ala-Ala-Arg-Asp-Phe-Ile-Asn-Trp-Leu-Ile-Gln-Thr-Lys-Ile-Thr-Asp-OH [GLP-2 [1-33]]
half-life ([1]; in humans): around 7 minutes | half-life ([1]; in humans, listed as native GLP-2): seven

Teduglutide (peptide)
EC50 Avg (nM), cAMP AlphaScreen in HEK293 cells expressing hGLP-2R [6]: 0.03 nM

HGEGTFSSELATILDALAARDFIAWLIATKITDKKKKKK-NH2 [ZP1848]
EC50_Avg (nM), cAMP AlphaScreen in HEK293 cells expressing hGLP-2R [6]: 0.3 nM

HGEGTFSSELATILDALAARDFIAWLIATKITDKKK-OH [ZP2949]
EC50_Avg (nM), cAMP AlphaScreen in HEK293 cells expressing hGLP-2R [6]: 0.11 nM

HGEGTFSSELATILDALAARDFIAWLIATKITDKK-OH [ZP2711]
EC50_Avg (nM), cAMP AlphaScreen in HEK293 cells expressing hGLP-2R [6]: 0.072 nM

HGEGTFSSELATILDALAARDFIAWLIATKITDK-OH [ZP2469]
EC50_Avg (nM), cAMP AlphaScreen in HEK293 cells expressing hGLP-2R [6]: 0.052 nM

HGEGSFSSELSTILDALAARDFIAWLIATKITDKKKKKK-NH2 [ZP1846]
EC50_Avg (nM), cAMP AlphaScreen in HEK293 cells expressing hGLP-2R [6]: 0.26 nM
